ChEMBL document CHEMBL4342498, “Design and Discovery of an Orally Efficacious Spiroindolinone-Based Tankyrase Inhibitor for the Treatment of Colon Cancer” (J Med Chem, 2020)

How the values were obtained:
[1] = Cmax in ICR mouse at 20 mg/kg, ip; type: ADME, organism-based; parameters: dose 20 mg/kg, route intraperitoneal; details: in vivo
[2] = biological target: Poly [ADP-ribose] polymerase 1 (Homo sapiens, UniProt P09874); assay: Inhibition of recombinant human PARP1 expressed in Escherichia coli assessed as reduction in auto-PARylation using histone as substrate measured after 45 mins in presence of biotinylated-NAD+ by ELISA
Chain of Poly [ADP-ribose] polymerase 1 (P09874 whole entry): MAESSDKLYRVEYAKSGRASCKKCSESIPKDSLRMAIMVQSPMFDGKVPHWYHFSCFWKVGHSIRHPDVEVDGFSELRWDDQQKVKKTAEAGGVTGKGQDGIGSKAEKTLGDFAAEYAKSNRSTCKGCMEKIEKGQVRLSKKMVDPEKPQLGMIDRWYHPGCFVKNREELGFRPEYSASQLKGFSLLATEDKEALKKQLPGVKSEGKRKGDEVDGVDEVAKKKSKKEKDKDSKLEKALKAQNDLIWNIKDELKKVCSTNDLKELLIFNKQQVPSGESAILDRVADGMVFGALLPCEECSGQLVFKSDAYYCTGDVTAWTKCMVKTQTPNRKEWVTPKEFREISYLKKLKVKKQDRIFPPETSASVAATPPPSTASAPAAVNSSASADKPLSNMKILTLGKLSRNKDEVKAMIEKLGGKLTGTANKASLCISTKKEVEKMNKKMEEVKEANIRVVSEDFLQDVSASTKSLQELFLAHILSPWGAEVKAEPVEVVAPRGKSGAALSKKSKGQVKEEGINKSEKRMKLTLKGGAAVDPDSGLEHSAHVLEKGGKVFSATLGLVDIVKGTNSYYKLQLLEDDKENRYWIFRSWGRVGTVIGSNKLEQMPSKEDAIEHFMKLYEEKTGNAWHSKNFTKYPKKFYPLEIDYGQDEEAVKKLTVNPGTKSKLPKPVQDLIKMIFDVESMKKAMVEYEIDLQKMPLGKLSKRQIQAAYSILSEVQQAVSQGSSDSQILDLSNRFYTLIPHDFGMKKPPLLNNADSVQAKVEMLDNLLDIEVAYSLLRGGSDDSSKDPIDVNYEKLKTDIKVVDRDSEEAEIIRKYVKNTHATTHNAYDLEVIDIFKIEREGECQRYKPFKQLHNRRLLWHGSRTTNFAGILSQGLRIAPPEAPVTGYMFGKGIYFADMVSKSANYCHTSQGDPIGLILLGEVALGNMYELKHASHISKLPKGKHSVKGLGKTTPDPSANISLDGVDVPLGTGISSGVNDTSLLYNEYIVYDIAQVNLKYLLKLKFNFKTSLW

Cytochrome P450 1A2 = biological target: T1, Cytochrome P450 1A2 (Homo sapiens, UniProt P05177); assay: Inhibition of CYP1A2 in human liver microsomes using phenacetin as substrate preincubated for 5 mins followed by NADPH addition and measured for 10 to 30 mins by LC-MS/MS analysis; type: ADME
T1 sequence (P05177 whole entry): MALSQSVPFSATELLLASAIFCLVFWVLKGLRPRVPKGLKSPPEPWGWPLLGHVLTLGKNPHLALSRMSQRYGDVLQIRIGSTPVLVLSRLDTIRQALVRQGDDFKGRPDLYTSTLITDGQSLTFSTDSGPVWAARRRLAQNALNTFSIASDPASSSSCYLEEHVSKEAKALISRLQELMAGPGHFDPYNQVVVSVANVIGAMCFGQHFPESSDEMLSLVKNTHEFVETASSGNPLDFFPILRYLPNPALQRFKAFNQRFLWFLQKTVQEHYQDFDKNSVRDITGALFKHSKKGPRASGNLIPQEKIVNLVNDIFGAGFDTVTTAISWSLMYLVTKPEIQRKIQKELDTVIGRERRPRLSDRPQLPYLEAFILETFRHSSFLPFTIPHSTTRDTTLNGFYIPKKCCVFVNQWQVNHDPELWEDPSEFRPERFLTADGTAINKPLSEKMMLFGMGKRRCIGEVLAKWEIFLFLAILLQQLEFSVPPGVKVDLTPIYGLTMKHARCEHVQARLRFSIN

[3] = Toxicity in human COLO320DM cells xenografted Prkdc-NOD-SCID CB17 mouse assessed as behavioral changes at 10 to 20 mg/kg, ip administered twice daily for 5 days followed by 2 days interval for 2 cycles measured during compound dosing; type: organism-based; details: in vivo
[4] = Cmax in ICR mouse at 20 mg/kg, po; type: ADME, organism-based; parameters: dose 20 mg/kg, route oral; details: in vivo
[5] = Volume of distribution at steady state in Sprague-Dawley rat at 3 mg/kg, iv; type: ADME, organism-based; details: in vivo, read-out: Vdss
[6] = Half life in ICR mouse at 20 mg/kg, po; type: ADME, organism-based; details: in vivo
[7] = Plasma concentration in human COLO320DM cells xenografted Prkdc-NOD-SCID CB17 mouse at 10 mg/kg, po administered twice daily for 5 days followed by 2 days interval for 2 cycles measured 4 hrs post-last dose; type: ADME, organism-based

Cmax [1]: 75.6 µM
IC50 [2]: 18.2 µM
IC50 (Cytochrome P450 1A2): > 10 µM
Cmax [4]: 76.6 µM
Vd [5]: 1.02 L/kg
half-life [6]: 102 min
concentration at 4 h [7]: 10.1 µM
Compound: C[C@@H]1CN(c2cc(F)c3c(c2)N(C)C(=O)C32CCN(c3nc4c(c(=O)[nH]3)CCCN4C)CC2)C[C@H](C)O1
Activity [3]: Non-Toxic
